Legend:
[1] = test system: NCI-H460 cells; assay: Mitochondrial function (alamar blue); type: cell-based, human; settings: H460, 100 μM THR53, up to 96 hours, Alamar Blue
Procedure: Mitochondrial function (alamar blue) NCI-H460 cells were grown in Ham's F12 media supplemented with 10% FCS. Cells were harvested and added to 96-well plates at densities of 250-1000. Compounds were made up from stock solutions and added directly to cells at the concentrations indicated. Cells were grown with compound for the indicated time at 37°C, 5% CO2, in a humidified atmosphere. Alamar Blue 10% (v/v) was then added and incubated for a further 4 h, and fluorescent product detected using the BMG FLUOstar plate reader. The media only background was subtracted and the data analysed as appropriate.

[2] = test system: normal diploid human keratinocytes; assay: Morphological cytotoxicity in primary keratinocyte cultures; type: cell-based; settings: 200 μM THR53 (Figure 2B)
Procedure: The appearances of the disintegrating colonies in Figure 4B were not dissimilar to those of "starbursts" earlier reported in human in vitro cancer cell colonies undergoing spontaneous cell death. Table 5 lists 11 cell lines with complete response to 200 μM THR53. This relatively homogeneous therapeutic response to the same critical dose of THR53 markedly contrasts with the wide range of variability of in-vitro dose response of different cancer cell lines typically seen with conventional chemotherapeutic agents In addition to showing lack of toxicity towards normal human diploid fibroblasts, THR53 and related cyclic amphiphilic PRGPRP-containing peptides were not cytotoxic to normal diploid human keratinocytes growing as primary cultures (Figure 2B) or to MRC5-hTERT immortalised fibroblasts (Figures 4A and 5A).

[3] = test system: NCI-H460 cells; assay: Total cellular protein (sulphorhodamine B assay); type: cell-based, human; settings: H460, 100 μM THR53, up to 96 hours, sulphorhodamine B
Procedure: Control medium/alamar blue were removed and 200 μl PBS was added. […] Wells were rinsed with water and allowed to air dry. Cells were then stained in 0.4% SRB solution, before rinsing with 1% acetic acid and air drying. Incorporated dye was solubilised in 10 mM Tris and absorbance measured at 565 nm and 690 nm. Absorbance measurements at 690 nm were subtracted from the 565 nm readings to correct for multi-well plate absorbance.

[4] = test system: RT112 human bladder cancer cells; assay: Time lapse photomicrography, RT112; type: cell-based; settings: RT112, 200 μM THR53, Ham's F12 + 10% FCS
Procedure: (§1) Progressive morphological changes in dying H460 cells exposed to 200 μM THR53 [additional file 1], contrasted with progressive cell division in untreated H460 cells [additional file 2] are shown as videos. Immortalised MRC5-hTERT fibroblasts, were unaffected by exposure to 200 μM THR53 except for some generalised slowing of growth (Figure 5A), [additional file 3] as compared to control, untreated, MRC5-hTERT cells [additional file 4]. RT112 cells were more sensitive to THR53 than H460 cells and died within 30 - 40 hours as compared to 96 hours for H460 and the majority of other human cancer cell lines investigated.
(§2) Figure 5 Time Lapse Photomicrography of MRC5-hTERT, RT112 human bladder cancer and […] human non-small cell lung cancer following exposure toTHR53. Cells were incubated in Ham's F12 + 10% FCS (control medium) or medium + 200 μM THR53. Morphological changes of vacuolation + cellar swelling are seen in RT112 at 33 hours after exposure to THR53 and in H460 at 90 hours after exposure to THR53. There was no evidence of cell blebbing or fragmentation. (see also videos)

[5] = test system: H460 human non-small cell lung cancer cells; assay: H460 cell killing at the dose chosen for assay comparison; type: cell-based; settings: 100 μM, by 96 hours
Procedure: In order to probe the mechanism of PRGPRP analogue induced cell death, three assays were conducted on H460 human non-small cell lung cancer cells over a period of 96 hours following exposure to THR53 (Figure 7A). Total cellular protein was measured by sulphorhodamine B [31], mitochondrial oxidation/reduction was measured by Alamar Blue assay and cellular ATP level was measured by luciferase activity. A dose of 100 μM THR53 at which 50% of H460 cells were killed by 96 hours was chosen for assay comparison. […] An assay for autophagy was thus carried out which utilises a proprietary reagent (Cyto-ID Green) that specifically labels autophagolysosomes, co-localising with LC3, a specific autophagosome marker. 25 μM Chloroquine was used as a positive control agent known to induce autophagy. […] However, no difference in the mean fluorescent intensity was seen following treatment with 100 μM THR53 at either 72 h or 96 h, when compared with control.

[6] = test system: H460 human non-small cell lung cancer cells; assay: Necrosis assay by Trypan Blue exclusion, H460; type: cell-based
Procedure: Necrosis Assay Cells were plated in triplicate in 96 well plates at concentrations of 500 cells per well (HT1299, MCF-7) or 1000 cells per well (H460, MRC5-hTERT) in the presence or absence of the relevant compound and assessed by Trypan Blue exclusion At 2,3,4 and 7 days after plating. To assay, cells were trypsinised off, stained with trypan blue in isotonic medium and live and dead cells separately counted visually by haemocytomter. Each data point is the mean of results from triplicate wells (Solid lines - Live cells, Broken lines - Dead Cells; Blue - Control, Red - THR53 200 μM).

[7] = test system: H460 cells; assay: Autophagy Assay (Cyto-ID Green, flow cytometry); type: cell-based, human; settings: H460, 100 μM, 72 h and 96 h
Procedure: Autophagy Assay was performed as recommended by the manufacturers' instructions (Enzo ENZ-51031-[…]). Briefly, H460 cells were seeded into 6 well plates at 2.5 × 10^5 and 1 × 10^5 cells/well. Immediately after cell plating, chloroquine or […] were added at the concentrations indicated. Following compound treatment, cells were washed once in PBS and resuspended in x1 Cyto-ID Green autophagy detection reagent and incubated at room temperature for 30 min. Immediately prior to analysis, propidium iodide (PI) solution was added to the cell suspension at a final concentration of 2.5 μg/ml, to assess cell death. Analysis was carried out using FACSCalibur (BD Biosciences). Cyto-ID Green autophagy reagent was measured in the FL-1 channel (530/30 nm bandpass filters with excitation at 488 nm) and PI measured in the FL-3 channel (670 nm longpass filters with excitation at 488 nm).

[8] = test system: normal diploid human fibroblasts; assay: In-vitro morphological cell viability screen, normal fibroblasts; type: cell-based; settings: dose 200 μM
Procedure: A broad search for possible biological activity associated with the [sequence] peptide sequence was initially instituted by screening human bladder cancer cell lines for potential in-vitro morphological changes, compared to control cultures of normal diploid human fibroblasts at 4-8 passages from primary culture as controls. […] The peptides were dissolved, over a range of concentrations, in Ham's F12 + 10% FCS and introduced in 100 μL quantities to microwells containing 500 RT112 bladder cancer cells, or normal diploid human fibroblasts, in 200 μL of Ham's F12 + 10% FCS plated 24 hours earlier on 96 well plates.

[9] = test system: H460 human non-small cell lung cancer cells; assay: Time lapse photomicrography, H460; type: cell-based; settings: H460, 200 μM THR53, Ham's F12 + 10% FCS
Procedure: as §1, §2

Substance: Cyc-[FPPRGPRPVKLALKLALK] (head to tail) [THR53, cyclic amphiphilic analogue, Cyc-[…]]
- mitochondrial oxidation/reduction [1]: without change
- cytotoxicity to normal diploid human keratinocytes [2]: not cytotoxic
- total cellular protein [3]: without change
- time at which morphological changes of vacuolation + cellular swelling are seen [4]: 33 hours
- time to cell death [4]: 30 to 40 h
- H460 cells killed [5]: 50%
- day at which necrotic cells are initially detectable ([6]; H460, 200 μM): 3 days
- necrosis detected by trypan blue uptake ([6]; H460, 200 μM, 2, 3, 4 and 7 days after plating, triplicate wells): induces necrosis
- autophagy, Cyto-ID Green mean fluorescent intensity compared with control [7]: no difference
- Cell Viability Normal Diploid Fibroblasts [8]: + + +
- time at which morphological changes of vacuolation + cellular swelling are seen [9]: 90 hours
- time to cell death [9]: 96 h

Reference: publication PMC3126777, “Selective anticancer activity of a hexapeptide with sequence homology to a non-kinase domain of Cyclin Dependent Kinase 4” (Molecular Cancer, 2011)
